Laboratory results reported in patent US20120288482A1, “THERAPEUTIC AGENT (Y-39983) FOR CORNEAL ENDOTHELIAL DYSFUNCTION” (priority 2009, published 2012).

Tests used:
[1] = test system: rabbit corneal endothelial cells; assay: In vitro wound healing model of rabbit corneal endothelial cells (Example 9); assay type: cell-based
Procedure: In this Example, test substances and control substance prepared in the same manner as in Example 4 were used. Corneoscleral tissue was collected from 10 rabbit eyeballs purchased from Funakoshi Corporation. The corneoscleral tissue was immersed in DMEM (Invitrogen, Cat. #12320-032) containing 1% penicillin/streptomycin (Invitrogen, Cat. #15140-122), and incubated at 37° C. for 1 hour. The Descemet's membrane was stripped together with intact corneal endothelial cells, immersed in a culture medium (DMEM, 10% FBS, 2 ng/mL bFGF (Invitrogen, Cat. #13256-029), 1% penicillin/streptomycin) containing 2 mg/mL Collagenase A (Roche, Cat. #1088793), and incubated at 37° C. for 2 hours. The cells were collected by centrifugation, washed with the culture medium, and seeded in a T25 flask (Corning Incorporated, Cat. #430639) coated with FNC coating mix (Athena ES, Cat. #0407). The flask were left standing in a 5% CO2 incubator at 37° C., the medium was exchanged every 2-3 days, and the cells were cultured to confluent. The cells that reached confluent were collected, seeded in two 6 well plates (Falcon, Cat. #3046) coated with FNC coating mix, and cultured to confluent. The prepared rabbit corneal endothelial cells were collected, seeded in a 6 well plate at a division ratio of 1:4, and cultured to confluent in the same culture medium as in the above-mentioned (1). Linear wound was created in the confluent cells using 1000 μL chip (6 wounds per well). After creating the linear wounds, the culture medium was exchanged, and 0.95 μM, 1.58 μM and 3.16 μM compound (I), 10 μM Y-27632 and 0.04% DMSO were added. Compound (I) and Y-27632 were dissolved in DMSO in advance, where the DMSO concentration was adjusted to 0.04% for both. The width of the wound at 0, 6, 12 and 24 hours after the addition was photographed over time. The wound width was measured by Image-Pro plus (Media Cybernetics, Inc.). The ratio of wound width at each hour was calculated by taking that at 0 hour after the addition of medicament as 100%, and the time-course changes of the ratio of wound width were evaluated. The ratio of wound width was applied to statistical analysis according to the Dunnett's test at each time point.

[2] = test system: rabbit bullous keratopathy model; assay: Corneal endothelial cell injection therapy in rabbit bullous keratopathy model (Example 8); assay type: in vivo; conditions: 14 days after cell injection; for expression of Na+/K+ ATPase: compared to control
Text: Male Japanese white rabbits (Biotek Co., Ltd., 8 rabbits) were subjected to the following nictitating membrane excision. Each animal was set in a positioner, and the ocular surface was topically anesthetized by instillation of a topical anesthesia (Benoxil instillation 0.4%, Santen Pharmaceutical Co., Ltd.). Then, the root position of the nictitating membrane was pressed with a clamp for 30 sec, and compressing mark was cut with scissors. After excision of the nictitating membrane, the antibiotic ointment (tarivid eye ointment, Santen Pharmaceutical Co., Ltd.) was instilled to prevent infection.
Three days after nictitating membrane excision, phacoemulsification and aspiration surgery (PEA) was performed on the left eye. Under systemic anesthesia, 3 mm incision was formed in the corneoscleral limbus, crystalline lens was excised by a cataract surgery instrument (NIDEK Co., Ltd.), and the incision was sutured with a nylon thread (Mani Inc.). After phacoemulsification and aspiration surgery (PEA), the antibiotic ointment (tarivid eye ointment, Santen Pharmaceutical Co., Ltd.) was instilled to prevent infection. After 5 days from the PEA, the animals were systemically anesthetized by intramuscular administration of Ketalar muscular injection ([…], DAIICHI SANKYO COMPANY, LIMITED., 0.6 ml) and Celactal 2% Injection (Bayer, Ltd., 0.25 ml). Then, Benoxil instillation 0.4% (Santen Pharmaceutical Co., Ltd., one drop) was instilled and the eye was opened using a lid speculum. Thereafter, 1 mm incision was formed in the corneoscleral limbus, and corneal endothelial cells were scraped with a silicon surgical instrument to mechanically detach the cells. The detachment area was confirmed by trypan blue staining.
The corneal endothelial cells were mechanically scraped, the cultured corneal endothelial cells were collected with 0.05% trypsin-EDTA (Invitrogen, Cat. #25300-054) from the culture flask to give a cell suspension. Using Dulbecco's modified Eagle's medium (DMEM) (Invitrogen, 12320-032), the cultured rabbit corneal endothelial cells were suspended in 3 groups of 10 μM compound (I)/DMEM, 100 μM Y-27632/DMEM and DMEM, each at 1.0×10^6 cells/ml. The cell suspension of each group (200 μl (2.0×10^5 cells per one eye)) was injected with a 22 gauge needle to the anterior chamber from the corneoscleral limbus of the prepared rabbit bullous keratopathy model, and the rabbit was fixed looking downward such that the corneal endothelium face was on the upper side and the corneal epithelial face was on the lower side for 3 hours. The fixing with looking downward was performed with appropriate addition of anesthetics, paying sufficient attention to animal protection.
After 14 days from the cell injection, the treated eye was isolated, and a corneoscleral tissue was excised from the isolated eyeball. The obtained corneoscleral tissue was fixed with 4% para-formaldehyde/PBS for 10 min, and blocked overnight with PBS (Invitrogen, Cat. #14190-144) containing 1% BSA (SIGMA, Cat. #A7906-50G). Thereafter, the corneoscleral tissue was divided into two, and treated with Alexa-488 labeling phalloidin staining actin (Invitrogen, Cat. #Al2379), or anti-Na^+/K^+ ATPase antibody, which is a corneal endothelium marker (UP State, Cat. #05-369), for 2 hours. The anti-Na^+/K^+ ATPase antibody treatment group was further treated with Alexa-488 labeled secondary antibody (Invitrogen, Cat. #A-21202) for 1 hour. Thereafter, the cells were immersed in Vectashield (registered trade mark)-DAPI (Vector Laboratories, Cat. #H-1200) solution, and mounted using cover glass. The specimen was observed under a confocal laser microscope.
Taking the number of nuclei stained with DAPI as the corneal endothelial cell count, the DAPI stained images were analyzed by Image-Pro plus (Media Cybernetics, Inc.), and corneal endothelial cells were counted.

| Compound | ratio of wound width versus control ([1]; 10 μM, 24 hours after addition) | fibrosis of injected cells (Phalloidin staining) ([2]; 100 μM in cell suspension) | corneal endothelial cell count versus control group ([2]; 100 μM) | expression of Na+/K+ ATPase ([2]; 100 μM) | concentration showing the highest effect in the in vitro wound healing model [1] | ratio of wound width versus control ([1]; 0.95 μM, 6 hours after addition, Dunnett's test) | wound healing effect ([1]; 1.58 μM) | ratio of wound width versus control ([1]; compound (I), 24 hours after addition, Dunnett's test) | concentration showing a wound healing promoting effect ([1]; in vitro wound healing model, Example 9) [µM] | fibrosis of injected cells (Phalloidin staining) ([2]; 10 μM in cell suspension) | corneal endothelial cell count versus 100 μM Y-27632 group ([2]; 10 μM) | corneal endothelial cell count versus control group ([2]; 10 μM) | expression of Na+/K+ ATPase ([2]; 10 μM) |
| --- | --- | --- | --- | --- | --- | --- | --- | --- | --- | --- | --- | --- | --- |
| C[C@@H](N)[C@H]1CC[C@H](C(=O)Nc2ccncc2)CC1 [Y-27632, reference compound] | showed a difference from the control for the first time | suppression of fibrosis of cells | tended to show higher cell counts than the control group | expression of Na^+/K^+ ATPase was found | – | – | – | – | – | – | – | – | – |
| C[C@@H](N)c1ccc(C(=O)Nc2ccnc3[nH]ccc23)cc1.Cl [compound (I), (R)-(+)-N-(1H-pyrrolo[2,3-b]pyridin-4-yl)-4-(1-aminoethyl)benzamide monohydrochloride] | – | – | – | – | about 0.95 μM | statistically significant difference from the control | significant effect, the effect was weaker than that of the 0.95 μM compound (I) | statistically significant difference even 24 hours later | 0.95 to 1.58 | suppression of fibrosis of cells | higher than that of the 100 μM Y-27632 treatment group | tended to show higher cell counts than the control group | expression of Na^+/K^+ ATPase was found |
